Data taken from patent US12577556B2, “Perturbation beads for use in assays” (Zafrens Inc., priority 2022, dated 2026).

Tested on: Jurkat cells engineered to have enhanced green fluorescent protein (eGFP) reporter fused to nuclear factor of activated T cells (NFAT) transcription factor
Experiment: NFAT-eGFP reporter assay in Jurkat cells with compounds photoreleased from labeled perturbation beads
Assay type: cell-based
Conditions: compounds released from beads by 10 seconds of 365 nm light, 60 mW/cm^2
Protocol: Individual beads were added to wells of a multiwell assay device. Jurkat cells engineered to have enhanced green fluorescent protein (eGFP) reporter fused to nuclear factor of activated T cells (NFAT) transcription factor were added to each well (cells purchased from BPS Bioscience, Catalog #78384). The compounds were released from the beads by exposure to 10 seconds of 365 nm wavelength light having illumination power of 60 mW/cm^2 and allowed to interact with the cells in the respective wells. […] This exemplifies using optically detectible labels on the bead to code for perturbation compounds and/or building blocks and corresponding that visible code to a cell perturbation.

`COc1cc2c(cc1Nc1ncc(C(=O)O)c(Nc3c(F)cccc3C(F)(F)F)n1)CN(C)CC2` [HPK, 4-{[2-Fluoro-6-(trifluoromethyl)phenyl]amino}-2-[(6-methoxy-2-methyl-1,2,3,4-tetrahydro-7-isoquinolinyl)amino]-5-pyrimidine-5-carboxylic acid] was tested, and the “change in NFAT-eGFP expression levels” value was “minimal change”.

In the case of `Cc1sc2c(c1C)C(c1ccc(Cl)cc1)=NC([C@@H](C(=O)O)C(C)(C)C)c1nnc(C)n1-2` (stereo partly drawn) [JQ1, ((S)-tert-butyl 2-(4-(4-chlorophenyl)-2,3,9-trimethyl-6H-thieno[3,2-f] [1,2,4]triazolo[4,3-a] [1,4]diazepin-6-yl)acetic acid)], the “change in NFAT-eGFP expression levels” value is reported as “minimal change”.

`O=C1CCC(N2Cc3cc(C(=O)O)ccc3C2=O)C(=O)N1` (stereo not drawn) [LNI, 2-(2,6-dioxopiperidin-3-yl)-1-oxoisoindoline-5-carboxylic acid] was tested, and the “change in NFAT-eGFP expression levels” value was “minimal change”.
